Here are results for four compounds from patent publication US12435294B2, “Prevention of the oxidation of perfumery raw materials and food raw materials” (Firmenich SA, priority 2018, dated 2025).

Read-outs that look alike come from different tables or passages of the source.

The nature of data set [1]: POV reduction in non-citrus essential oil: pine oil Siberian. To be noted: 4 days. As to the method:
(§1) For each oil, 20 mL was placed in separate 30 mL glass vials, and subjected to the following procedure for 8 days on a daily basis; the vial was opened to refresh the atmospheric headspace, then reclosed and shaken to maximize the gas/liquid contact, then stored on the benchtop under ambient laboratory temperature and lighting conditions. This procedure was designed to mimic the typical handling of a container in a production setting, in which the oil gets consumed in many small aliquots, rather than an entire container at a time.
(§2) On Day 4, each oil sample was split in half, so two 10 mL aliquots were placed in separate vials to create a “Treated” and an “Untreated” sample. To the Treated sample of each oil type, AKG-DiTMEEA was added as per the Dosing chart below. […] The daily opening, shaking, and standing procedure continued for another four days until the POV measurements were taken. It can be seen that 8 days of such handling of the untreated oils caused significant increases in POV measurement.
For this reason, two levels of AKG-DiTMEEA treatment were tried, ×2 and ×4 the treatment used on the other oils. […] A different, lower molecular weight 2-oxoacid salt may be a better choice.

Data set [2] can be described thus: POV reduction in non-citrus essential oil: petitgrain oil. The following applies: 4 days treatment, 0.2 mL in 10 mL. As to the method:
as §1, §2

Data set [3] in a line: POV reduction in non-citrus essential oil: patchouli oil. The following applies: 4 days treatment, 0.2 mL in 10 mL. As to the method: as §1, §2
The nature of data set [4]: POV reduction in non-citrus essential oil: basil oil. To be noted: 4 days treatment, 0.2 mL in 10 mL. As to the method:
as §1, §2

A short description of data set [5]: POV reduction in non-citrus essential oil: lavender oil. To be noted: 4 days treatment, 0.2 mL in 10 mL. Here is the method: as §1, §2
Data set [6] in a line: POV reduction in non-citrus essential oil: coriander oil. The following applies: 4 days treatment, 0.2 mL in 10 mL. As to the method: as §1, §2
The nature of data set [7]: POV reduction in non-citrus essential oil: cinnamon leaf oil. The following applies: 4 days treatment, 0.2 mL in 10 mL. Here is the method: as §1, §2
Data set [8] is described as follows: POV reduction in non-citrus essential oil: cedarwood oil Virginian. The following applies: 4 days treatment, 0.2 mL in 10 mL. As to the method: as §1, §2
Data set [9] is described as follows: POV reduction in consumer product spiked with oxidized limonene: antiperspirant stick. To be noted: 1% (w/w).
Data set [10] can be described thus: POV reduction in sunflower oil. The following applies: 0.5081 g in 15 mL sunflower oil.
The nature of data set [11]: POV reduction in non-citrus essential oil: star anise oil. To be noted: 4 days treatment, 0.2 mL in 10 mL. Here is the method:
as §1, §2

Data set [12] can be described thus: Solubility / miscibility observed on addition to the treated material. To be noted: 200 mg in 20 mL.
Data set [13] can be described thus: POV reduction in autoxidized limonene. To be noted: 200 mg in 20 mL autoxidized limonene. Here is the method: The vial was shaken once and allowed to stand for 50 minutes. No further treatment was done prior to the POV testing. […] POV before treatment was 65.97 mEq./L, and POV after treatment was 17.21 mEq./L. […] The vial was shaken once and allowed to stand, while being monitored for POV value as a function of time. […] The vial was shaken once and allowed to stand, while being monitored for POV value as a function of time.

Data set [14] can be described thus: POV reduction in model citrus perfume (mixed citrus oil in 90/10 v/v ethanol/water).
Data set [15] is described as follows: pH of aqueous solution. The data set is classed as physicochemical. To be noted: solution of 0.114 g in 10 mL of water.
The conditions of data set [16]: leading to evolution of carbon dioxide and pyruvic acid; Krebs 1942; cited from earlier work.
Where [17] appears, read: Siberian (x2 Treatment Level), 0.2 mL in 5 mL.
The mark [18] stands for this setting: Siberian (x4 Treatment Level), 0.4 mL in 5 mL.
The mark [19] stands for this setting: 8 days* (second line, asterisk not explained).
[20] abbreviates: 2880 min (48 hrs) since addition.

Turning to `COCCOCCN(CCOCCOC)CCOCCOC.COCCOCCN(CCOCCOC)CCOCCOC.O=C(O)CCC(=O)C(=O)O` [AKG-diTMEEA], the “% Reduction in POV” value in data set [1] (setting [17]) came to 48.4%; in data set [1] (setting [18]), 68.4%; in data set [2], 79.9%; in data set [3], 100.0%; in data set [4] it was 89.6%; in data set [5] it was 76.3%. Also, the “% Reduction in POV” value in data set [6] is 89.7%; in data set [7] it was 87.5%; in data set [8], 95.2%; in data set [9] (150 minutes), 71.3%; in data set [9] (310 minutes (5.17 h)), 78.3%; in data set [9] (26 hrs), 83.2%. Also, the “% Reduction in POV” value in data set [9] (4 days) worked out at 83.8%; in data set [9] (setting [19]) it was 86.6%; in data set [9] (8 days) it was 87.0%; in [9] (15 days) it was 88.4%; in data set [9] (26 days) it was 88.7%; in [10] (65 minutes) it was 29.2%. Also, the “% Reduction in POV” value in data set [10] (180 mins (3 hrs)) turned out to be 44.5%; in [10] (1320 mins (22 hrs)), 65.0%; in [10] (23 days), 88.7%; in data set [11], 89.2%. Moreover, the “POV of Treated Oil” value in data set [1] (setting [17]) turned out to be 24.8 mmol/L; in [1] (setting [18]) it was 15.21 mmol/L; in data set [2], 4.28 mmol/L; in data set [3] it was 0.00 mmol/L; in data set [4] it was 2.49 mmol/L; in data set [5], 5.83 mmol/L. The “POV of Treated Oil” value in data set [6] was found to be 2.44 mmol/L; in [7], 0.57 mmol/L; in [8] it was 0.72 mmol/L; in data set [11] it was 0.38 mmol/L. Further, the “POV of treated APS” value came to 3.7 mmol/L in data set [9] (150 minutes since addition, spiked with oxidized limonene); 3.03 mmol/L in data set [9] (310 minutes (5.17 h)); 2.46 mmol/L in data set [9] (26 hrs); 2.04 mmol/L in data set [9] (4 days); 1.8 mmol/L in [9] (setting [19]); 1.77 mmol/L in data set [9] (8 days). Further, the results for the “POV of treated APS” value in data set [9] (15 days) and in [9] (26 days) were 1.50 mmol/L and 1.42 mmol/L, respectively. Besides, the “POV of treated oil” value in data set [10] (65 minutes since addition) was 11.72 mmol/L; in [10] (180 mins (3 hrs)), 9.19 mmol/L; in [10] (1320 mins (22 hrs)), 5.80 mmol/L; in data set [10] (23 days) it was 2.10 mmol/L.

With `O=C(O)C(=O)c1ccccc1` [phenylglyoxylic acid], in data set [12], the “solubility in autoxidized limonene (in words)” value is “dissolved”. Also, the POV was found to be 37.035 mEq/L in [13] (40 min since addition), 34.086 mEq/L in data set [13] (150 min since addition), 29.963 mEq/L in [13] (190 min since addition) and 17.265 mEq/L in data set [13] (setting [20]). Further, the POV reduction in data set [13] (40 min since addition) is reported as 17.3%; in data set [13] (150 min since addition) it was 23.9%; in [13] (190 min since addition), 33.1%; in [13] (setting [20]) it was 61.5%.

Take `O=C(O)CCC(=O)C(=O)O` [α-ketoglutaric acid, alpha-ketoglutaric acid]: the “reduction in the POV of the formulated perfume (in words)” value in data set [14] was “complete reduction”. Besides, the “measured pH” value in data set [15] is recorded as 1.75.

For `O=C(O)CC(=O)C(=O)O` [oxaloacetic acid], the “POV of Treated Perfume” value in data set [14] (0.0 min, approximately 166 mg (0.83% w/v) in 20 mL model perfume (Example 19)) is given as 9.44 mmol/L; in [14] (27 min, 0.83% w/v in 20 mL model perfume (Example 19)) it was 5.90 mmol/L; in data set [14] (245 min, 0.83% w/v in 20 mL model perfume (Example 19)), 1.91 mmol/L; in data set [14] ([…] (24 hours), 0.83% w/v in 20 mL model perfume (Example 19), indistinguishable from blank), 0.0 indistinguishable from mmol/L. For the same compound, in [14] (24 hours after treatment), the “reduction in the POV of the formulated perfume (in words)” value is recorded as “complete reduction”. The “stability in aqueous solutions” value in data set [16] was “unstable in aqueous solutions”.
